pKi: −log10 of the molar value. Structures can show the parent of a compound that is named as a salt. Where two headings read alike, the source gives them in different places. Marks after values point to notes of the source that are not given here. Each block holds one molecule with its values, some of them ahead of it.
Columns and labels:
[1] = MLMs, cited from earlier work; for % Remaining after 30 min: protein concentration 0.5
mice [2] = experiment: Forced swim test in naive mice; assay type: in vivo, mouse; settings: alone
Procedure: Adult male Albino-Swiss mice (CD-1, 8 weeks old, 18–21g: Jagiellonian University Medical College, Krakow, Poland) were used in all experiments. Unless stated otherwise, the animals were kept in groups of 10 mice in standard cages (37 cm × 21 cm × 15 cm) at a room temperature (22 ± 2 °C), on a 12 h light/dark cycle (lights on 7:00) with ad libitum access to food and water. Mice were used only once in each test. Behavioral experiments were performed between 8 am and 4 pm and evaluated by a trained observer blind to the treatments. Mice were handled for 1 week before starting the experimental procedures. Animals were randomly allocated to the treatment using a computer-generated sequence, and researchers making measurements on the animals or analyzing the results were blind to the allocation. Moreover, experimental groups were distributed across multiple cages, and the location of the mouse cages in the room was changed following each day.
HBK-10, WAY-100635 (Sigma, Darmstadt, Germany), p-chlorophenylalanine (pCPA; Sigma, Darmstadt, Germany), fluoxetine (Sigma, Darmstadt, Germany), reboxetine (Sigma, Darmstadt, Germany) and bupropion (Sigma, Darmstadt, Germany), were suspended in 1% Tween, and administered ip at a volume of 10 mL/kg 30 min before each behavioral test. The control groups received saline ip 30 min prior to testing. The doses of fluoxetine, reboxetine and bupropion as well as WAY-100635 and pCPA were based on our previous studies with 2-methoxyphenylpiperazine derivatives.
(§1) The experiment was performed on mice according to the method described by Porsolt et al. and as previously described. Mice were placed individually in glass cylinders (height 25 cm, diameter 10 cm) filled with water at 24 ± 1 °C to a depth of 10 cm and left there for 6 min. Following a 2 min habituation period, total time spent immobile was recorded during the next 4 min. The animal was considered as immobile when it remained floating passively in the water, making only small movements to keep its head above the water. The experiments were video-recorded and scored using elevenmaze.com software by a trained observer blind to the treatments.
To assess the involvement of a serotonergic system in the antidepressant-like activity of tested compounds in the forced swim test, the mice were pretreated with pCPA (tryptophan hydroxylase inhibitor) according to the method previously described. […]. Twenty-four hours after the last pCPA administration, we injected mice with 1% Tween ip or tested compound. We performed the forced swim test 30 min after the administration.
The putative involvement of 5-HT1A receptors in the antidepressant-like effect of tested compound was studied using WAY-100635 (a selective 5-HT1A receptor antagonist). WAY-100635 at a dose of 0.1 mg/kg was administered sc 15 min prior to the injection of HBK-10. After 30 min the forced swim test was performed. The behaviorally ineffective dose of WAY-100635 used in the experiments was based on our previous experiments.

serotonin level = tested on: serotonin level; design: method as in PMID 9044239; settings: 3-day treatment with pCPA; cited from earlier work
5-HT1A = molecular target: 5-HT1A; design: method as in PMID 10073136; settings: cited from earlier work
5-HT2A = molecular target: 5-HT2A; design: method as in PMID 10073136; settings: cited from earlier work
α1-adrenoceptor = molecular target: α1-adrenoceptor; design: method as in PMID 10073136; settings: cited from earlier work
[3] = tested on: corticosterone-treated mice; experiment: Forced swim test in corticosterone-induced mouse model of depression; assay type: in vivo; settings: fluoxetine 15 mg/kg ip, chronic (3 weeks)
Procedure: as §1
(§2) Mice were injected with corticosterone (sc, 20 mg/kg) at random times during the light phase for 21 days. The dose and route of administration of corticosterone were based on our previous study. Control mice received saline containing 0.1% dimethyl sulfoxide (DMSO) and 0.1% Tween (sc). For the next 21 days, 30 min before the corticosterone injection, mice were injected with saline, HBK-10 (0.625 or 1.25 mg/kg), or fluoxetine (15 mg/kg) (ip). Twenty-four hours after the last injection, animals were tested in the forced swim test and locomotor activity test (Figure 8).

[4] = tested on: corticosterone-treated mice; experiment: Locomotor activity in corticosterone-treated mice; assay type: in vivo, mouse; settings: 15 mg/kg ip chronic, 4 min
Procedure: The locomotor activity of mice was measured as previously described. We used photoresistor actometers (Ugo Basile, Italy) connected to a counter for the recording of light-beam interruptions. Mice were placed individually in cages for 30 min, and the number of crossings of the light beams was recorded as the locomotor activity for 4 min.
as §2

mice [5] = settings: i.p.; cited from earlier work
mice [6] = settings: i.p.; cited from earlier work; remark: listed apart in the source
[7] = molecular target: voltage-sensitive calcium channels (Cav); design: method as in PMID 10073136; settings: read-out: Ki Cav [3H]-nitrendipine; cited from earlier work

Structure (SMILES): O=C1CC2(CCCC2)CC(=O)N1CCCCN1CCN(c2ncccn2)CC1 [Buspirone]
% Remaining after 30 min [1]: 0.29 ^a %
% Remaining after 30 min ([1]; listed as buspirone): lower than 1%

Structure (SMILES): O=C1CCc2ccc(OCCCCN3CCN(c4cccc(Cl)c4Cl)CC3)cc2N1 [Aripiprazole]
t1/2 ([1]; protein concentration 1.0): 217 ^b min

Structure (SMILES): N[C@@H](Cc1ccc(Cl)cc1)C(=O)O (racemic) [pCPA, p-chlorophenylalanine]
Effect on immobility in the forced swim test (mice [2]; pCPA 200 mg/kg ip once daily for three days): had no effect on the immobility
Reduction of serotonin level in midbrain (serotonin level): 24%
Reduction of serotonin level in the cortical regions (serotonin level): around 30%

Structure (SMILES): COc1ccccc1N1CCN(CCCOc2c(C)cccc2C)CC1 [Compd. I, 1-[3-(2,6-dimethylphenoxy)propyl]-4-(2-methoxyphenyl)piperazine hydrochloride]
pKi (5-HT1A): 8.31
pKi (5-HT2A): 6.72
pKi (α1-adrenoceptor): 8.68

Number of Crossings ± SEM [4]: 462.5 ± 41.81
Structure (SMILES): CNCCC(Oc1ccc(C(F)(F)F)cc1)c1ccccc1 (stereo not drawn) [Fluoxetine, reference compound]
Decrease of immobility in the forced swim test in corticosterone-treated mice [3]: 32%

Structure (SMILES): CC[C@@H](CO)NCCOc1c(C)cccc1C [Compd. II, (S)-{2-[(2-(2,6-dimethylphenoxy)ethyl]amino}butan-1-ol hydrochloride]
MES ED50 (mice [5]): 7.57 mg/kg
Rotarod test TD50 (mice [6]): 34.45 mg/kg
pKi [7]: 4.74

Structure (SMILES): COc1ccccc1N1CCN(CCN(C(=O)C2CCCCC2)c2ccccn2)CC1 [WAY-100635, reference compound]
Effect on immobility in the forced swim test (mice [2]; WAY-100635 0.1 mg/kg sc): had no effect on the immobility

— publication PMC8400343, “Synthesis and Evaluation of the Antidepressant-like Properties of HBK-10, a Novel 2-Methoxyphenylpiperazine Derivative Targeting the 5-HT1A and D2 Receptors” (Pharmaceuticals, 2021)
